Earlier results, collected in patent US20190352262A1, “New Pleuromutilin Antibiotic Compounds, Compositions and Methods of Use and Synthesis” (YALE UNIVERSITY, priority 2017, published 2019).
“Also recorded” adds a separate entry of the source.

Test system: Gram-positive bacteria
Details: background statement, no data of the applicant

SMILES | antibacterial activity (growth inhibition of Gram-positive bacteria)
C=C[C@]1(C)C[C@@H](OC(=O)CO)[C@@]2(C)C3C(=O)CC[C@@]3(CC[C@H]2C)[C@H](C)C1O (single isomer, unassigned; (+)) [(+)-Pleuromutilin, (+)-pleuromutilin] | inhibit the growth
C=C[C@]1(C)C[C@@H](O)[C@]2(C)[C@H](C)CC[C@]3(CCC(=O)[C@H]32)[C@@H](C)[C@@H]1O [(+)-mutilin] | not active; also recorded: largely inactive
